Reference: patent US12565473B2, “Coating composition” (priority 2020, dated 2026)

What was measured:
[1] = test system: mouse embryonic stem (mES) reporter cell lines; conditions: Bscl2 and Rtkn, absence and presence of S9
Rtkn = assay: ToxTracker genotoxicity assay, Rtkn-GFP reporter induction
Bscl2 = assay: ToxTracker genotoxicity assay, Bscl2-GFP reporter induction
[2] = with S9 rat liver extract, 3 h exposure and 24 h recovery, at 10% cytotoxicity
[3] = with S9 rat liver extract, 3 h exposure and 24 h recovery, at 25% cytotoxicity
[4] = with S9 rat liver extract, 3 h exposure and 24 h recovery, at 50% cytotoxicity
[5] = without S9 rat liver extract, 24 h exposure, at 10% cytotoxicity
[6] = without S9 rat liver extract, 24 h exposure, at 25% cytotoxicity
[7] = without S9 rat liver extract, 24 h exposure, at 50% cytotoxicity

| SMILES | Genotoxicity test result (overall conclusion) [1] | Rtkn GFP reporter induction level (Rtkn; [2]) | Rtkn GFP reporter induction level (Rtkn; [3]) | Rtkn GFP reporter induction level (Rtkn; [4]) | Rtkn GFP reporter induction level (Rtkn; [5]) | Rtkn GFP reporter induction level (Rtkn; [6]) | Rtkn GFP reporter induction level (Rtkn; [7]) | Bscl 2 GFP reporter induction level (Bscl2; [2]) | Bscl 2 GFP reporter induction level (Bscl2; [3]) | Bscl 2 GFP reporter induction level (Bscl2; [4]) | Bscl 2 GFP reporter induction level (Bscl2; [5]) | Bscl 2 GFP reporter induction level (Bscl2; [6]) | Bscl 2 GFP reporter induction level (Bscl2; [7]) |
| --- | --- | --- | --- | --- | --- | --- | --- | --- | --- | --- | --- | --- | --- |
| CCCCOCC(CN1CC1C)OC(=O)NCCCCCCn1c(=O)n(CCCCCCNC(=O)OC(COCCCC)CN2CC2C)c(=O)n(CCCCCCNC(=O)OC(COCCCC)CN2CC2C)c1=O (centres unmarked) [Composition 1] | non-genotoxic | 0.9 | 0.8 | 0.6 | 0.8 | 0.8 | 0.6 | 1.0 | 1.0 | 0.9 | 1.1 | 1.1 | 1.1 |
| CCCCOCC(CN1CC1C)OC(=O)NCCCCCCn1c(=O)n(CCCCCCNC(=O)OC(COCCCC)CN2CC2C)c(=O)n(CCCCCCNC(=O)OC(COCCCC)CN2CC2C)c1=O (centres unmarked) [Composition 21] | non-genotoxic | 1.1 | 1.0 | 0.9 | 1.1 | 1.0 | 0.9 | 1.0 | 0.9 | 0.7 | 1.1 | 1.1 | 0.9 |
